Molecules are shown by their SMILES.

The nature of the series: Conversion of the crystal form when suspended and stirred in a solvent at room temperature. The format is physicochemical. An excerpt: The anhydrate crystal form (Form B) can be converted to other crystal forms under suitable conditions. […] 6, 2006).

As to `C=Cc1cc(O)cc2nc(-c3ccc(O)c(F)c3)oc12` [Form B, 2-(3-fluoro-4-hydroxyphenyl)-7-vinyl-1,3-benzoxazol-5-ol], the “crystal form obtained after suspending and stirring in ethanol” value (suspended and stirred in ethanol at room temperature for three days) was “another anhydrate crystal form is obtained”. Moreover, the “crystal form obtained after suspending and stirring in methanol” value (suspended and stirred in methanol at room temperature for one day) is “another anhydrate crystal form is obtained”. The “crystal form obtained after suspending and stirring in water” value (suspended and stirred in water at room temperature for three days) is reported as “a hydrate crystal form is obtained”.

The record behind these values is patent publication US20080175900A1, “PHARMACEUTICAL FORMULATIONS OF AN ANHYDRATE CRYSTAL FORM OF 2-(3-FLUORO-4-HYDROXYPHENYL)-7-VINYL-1,3-BENZOXAZOL-5-OL” (WYETH, priority 2006, published 2008).
